For 44 compounds, logP results are on record in US20100022559A1, “BISOXIMES AS FUNGICIDES” (BAYER CROPSCIENCE AG, priority 2006, published 2010).

This series in a line: logP determination by HPLC on a reversed-phase column (C 18), EEC Directive 79/831 Annex V.A8. The format is physicochemical. The protocol: The stated logP values were determined in accordance with EEC Directive 79/831 Annex V.A8 by HPLC (high performance liquid chromatography) on a reversed-phase column (C 18). Temperature: 43° C.
Setting [1] is: method marker [b], isomer A / isomer B / isomer mixture as noted in the cell.
Setting [2] is: method marker [a] (footnote not shown), isomer A / isomer B / isomer mixture as noted in the cell.

The structures appear in SMILES notation.

For the compound `CCCC(CON=C(C)c1cc(C)cc(C)n1)CON=C(C)c1cc(C)cc(C)n1` (stereo not shown) [Compound 555], the logP is 3.22^[b] (method marked [b] in Table 1) and 7.15^[c] (method marked [c] in Table 1). Consider `C=C(CON=C(C)c1cccc(C)n1)CON=C(N)c1nc(C2CC2)cc(C2CC2)n1` [Compound 243], for which the logP under setting [1] is 3.09^[b].

Take `C=C(CON=C(C)c1cccc(C)n1)CON=C(c1cccc(C)n1)C1CC1` (single isomer, unassigned) [compound 537]: for the setting “method marked [b] in Table 1”, the logP was 3.46^[b] (isomer B). For `CCCc1cccc(C(C)=NOCCCCON=C(C)c2cccc(C)n2)n1` [compound 450], the logP (value marked [b]) is 5.48^[b]. Regarding `CCCC(=NOCC1(CON=C(CCC)c2cccc(C)n2)CC(c2ccccc2Cl)=NO1)c1cccc(C)n1` (stereo not shown) [compound 623], the logP (method marked [b] in Table 1) was 6.51^[b]. On to `C=C(CON=C(C)c1cccc(C)n1)CON=C(C)c1nc(C)cc(C)n1` [Compound 188], for which the logP under setting [1] is 2.69^[b]. Regarding `CC(=NOCC(C)CON=C(C)c1cccc(CC(C)C)n1)c1cccc(CC(C)C)n1` (stereo not shown) [compound 172], the logP under setting [2] was 7.36^[a].

Take `CC(=NOCC1(CON=C(C)c2nc(C)ccc2C)CCC1)c1nc(C)ccc1C` (single isomer, unassigned) [compound 761]: the logP is, setting by setting: (value marked [b]) 3.77^[b]; (value marked [c]) 5.84^[c].

With `Cc1nc(/C(N)=N/OC/C=C/CO/N=C(\N)c2nc(C)c3c(n2)CCCC3)nc2c1CCCC2` [compound 721], under “method marked [b] in Table 1”, the logP was 2.51^[b].

In the case of `Cc1cc(C)nc(C(Cl)=NOCC(C)CON=C(Cl)c2cc(C)cc(C)n2)c1` (stereo not shown) [compound 833], the logP (value marked [a]) is 4.17^[a]. In the case of `Cc1ccc(C(=NOCC(C)CON=C(c2ccc(C)c(C)n2)C(C)C)C(C)C)nc1C` (mixture of isomers) [compound 299], the logP (value marked [a]) was 4.82^[a]. Regarding `CC(=NOCC(C)(C)CON=C(C)c1cccc(C)n1)c1ccc2c(c1)OCO2` [compound 412], the logP (value marked [b]) was 5.08^[b]. In the case of `C=C(CON=C(C)c1ncccc1C)CON=C(C)c1ncccc1C` [compound 65], the logP under setting [1] was 2.90^[b].

With `C=C(CON=C(C)c1cccc(C)n1)CON=C(C)c1cccc2ccccc12` [compound 406], for the setting “value marked [b]”, the logP is 5.02^[b]. Regarding `CCOC(=O)C(C)(CON=C(C)c1cc(C)cc(C)n1)CON=C(C)c1cc(C)cc(C)n1` (stereo not shown) [compound 855], the logP reads like this: (value marked [b]) 2.79^[b]; (value marked [c]) 5.72^[c]. Regarding `CON=C(c1ccccc1)c1cccc(C(C)=NOCC(C)CON=C(C)c2cccc(C)n2)n1` (mixture of isomers) [Compound 693], where the note is “method marked [b] in Table 1”, the logP was 6.22^[b]. Same read-out and setting: the value for `CC(=NOC(C)C(C)C(C)ON=C(C)c1cccc(C)n1)c1cccc(C)n1` (mixture of isomers) [Compound 743] was 4.90^[b]. Turning to `CCCc1cccc(C(C)=NOCCCCCCON=C(C)c2cccc(C)n2)n1` [compound 463], for the setting “value marked [b]”, the logP is 6.79^[b]. Consider `CC(=O)OCC#Cc1cc(C)nc(C(C)=NOCC(C)CON=C(C)c2cc(C#CCOC(C)=O)cc(C)n2)c1` (stereo not shown) [compound 875], for which the logP was 6.25^[a] (value marked [a]), 6.25^[b] (value marked [b]) and 6.31^[c] (value marked [c]).

On to `CCC(CC)(CON=C(C)c1ccc(C)c(C)n1)CON=C(C)c1ccc(C)c(C)n1` [Compound 810], for which the logP is 6.50^[b] (value marked [b]) and 7.36^[c] (value marked [c]). As to `CC(=NOCC(C)CON=C(C)c1nc(C)cc(C(F)(F)F)n1)c1nc(C)cc(C(F)(F)F)n1` (stereo not shown) [compound 273], the logP (value marked [b]) is 4.86^[b]. The same measure, in the same setting: the value for `C=C(CON=C(C)c1nc(C)ccc1C)CON=C(C)c1nc(C)ccc1C` (single isomer, unassigned) [compound 307] was 2.37^[b] (isomer A). On to `COc1ccc(-c2cccc(C(C)=NOCC(C)(C)CON=C(C)c3cccc(-c4ccc(OC)cc4)n3)n2)cc1` [compound 579], for which, under “method marked [a] in Table 1”, the logP was 7.36^[a]. Consider `CC(=NOCCCCON=C(C)c1ncccc1C)c1cccc(C)n1` [compound 451], for which, for the setting “value marked [b]”, the logP is 3.02^[b]. `CC(=NOCC1(CON=C(C)c2cc(C)cc(C)n2)CC(c2ccccc2Cl)=NO1)c1cc(C)cc(C)n1` (stereo not shown) [compound 645]: the logP (method marked [b] in Table 1) was 3.19^[b]. On to `CCOC(=O)C(C)(CON=C(C)c1nc(C)ccc1C)CON=C(C)c1nc(C)ccc1C` (stereo not shown) [compound 884], for which the logP (value marked [b]) is 2.47^[b] and the logP (value marked [c]) was 3.84^[c]. With `C=C(CON=C(C)c1cccc(C)n1)CON=C(C)c1cccc(OC)n1` [compound 207], under setting [1], the logP is 4.82^[b]. With `CC(=NOCC(C)(C)CON=C(C)c1cc(Cl)cc(C)n1)c1cc(Cl)cc(C)n1` [compound 804], the logP (value marked [a]) was 7.36^[a]. For the compound `CC(=NOCC(C)CON=C(C)c1cc(Cl)cc(C)n1)c1cc(Cl)cc(C)n1` (stereo not shown) [compound 792], the logP reads like this: (value marked [a]) 7.36^[a]; (value marked [c]) 7.36^[c].

Turning to `COc1cc(O)nc(C(C)=NOCC(C)CON=C(C)c2nc(OC)cc(OC)n2)n1` (stereo not shown) [compound 271], the logP (value marked [b]) was 3.05^[b]. For `CC(=NOCC1OC(C)(C)OC1CON=C(C)c1cccc(C)n1)c1cccc(C)n1` (stereo not shown) [compound 215], the logP under setting [1] was 3.09^[b].

With `CCOC(=O)C(C)(CON=C(C)c1nc(C)ccc1C)CON=C(C)c1nc(C)ccc1C` (stereo not shown) [compound 860], the logP is 3.03[b] (value marked [b]) and 4.72^[c] (value marked [c]).

Turning to `C=C(CON=C(C)c1cccc(C)n1)CON=C(C)c1cc(C(F)(F)F)cc(C)n1` [compound 211], under setting [1], the logP is 5.70^[b]. As for `CC(=NOCCCCCCON=C(Cc1ccccc1)c1ncccc1C)c1cccc(C)n1` [compound 339], for the setting “value marked [b]”, the logP is 5.90^[b] (isomer B). With `Cc1cc(C)nc(C(N)=NOC/C=C\CON=C(N)c2nc(C)cc(C)n2)n1` [compound 773], the logP (value marked [b]) is 1.75^[b].

On to `C=C(CO/N=C(\N)c1nc(COC)c(C)c(COC)n1)CO/N=C(\N)c1nc(COC)c(C)c(COC)n1` [compound 44], for which the logP under setting [1] is 1.83^[b]. As for `Cc1cccnc1C(Cc1ccccc1)=NOCC(C)CON=C(Cc1ccccc1)c1ncccc1C` (single isomer, unassigned) [compound 109], the logP under setting [2] was 6.00^[a] (isomer B).

As to `CC(=NOCC(C)(C)CON=C(C)c1cccc(-c2ccc(Cl)c(C(F)(F)F)c2)n1)c1cccc(-c2ccc(Cl)c(C(F)(F)F)c2)n1` [compound 577], the logP (method marked [a] in Table 1) was 7.36^[a].

As to `CC(=NOCC(CON=C(C)c1nc(C)ccc1C)C(C)C)c1nc(C)ccc1C` (single isomer, unassigned) [Compound 753], the logP was 4.51^[b] (method marked [b] in Table 1) and 5.95^[c] (method marked [c] in Table 1).

Turning to `CC(=NOc1nc(Cl)nc(ON=C(C)c2cccc(C)n2)c1Cl)c1cccc(C)n1` (single isomer, unassigned) [compound 779], the logP reads like this: (value marked [b]) 4.62^[b]; (value marked [c]) 5.09^[c]. With `CCCC1=NOC(CON=C(C)c2cc(C)cc(C)n2)(CON=C(C)c2cc(C)cc(C)n2)C1` (stereo not shown) [compound 640], for the setting “method marked [b] in Table 1”, the logP was 2.20^[b]. Regarding `C=C(CON=C(C)c1cccc(OC)c1)CON=C(C)c1cccc(C)n1` [compound 470], the logP (value marked [b]) is 4.46^[b].

On to `Cc1cccc(C(CS(C)(=O)=O)=NOCCCON=C(CS(C)(=O)=O)c2cccc(C)n2)n1` [compound 170], for which, under setting [2], the logP was 2.75^[a].

As for `CC(=NOCCCCON=C(C)c1ccnc(C)n1)c1cccc(C)n1` [compound 336], the logP (value marked [b]) is 3.28^[b].
